Where a name gives a salt, the structure may show the parent alone.
Tested on: collagen 1
Test: WI-38 collagen 1 inhibition assay (anti-Collagen I immunofluorescence);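 also: minus sign means inactive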
Assay type: cell-based
Settings: cellular EC50, WI-38 human lung fibroblasts, values are LogEC50 classes
Experimental: WI-38 cells (ATCC® CCL-75™) were maintained in MEM EAGLE (NEAA) W. GLUTAMIN (Biological Industries, Cat. 06-1040-15-1A) containing 10% fetal bovine serum (FBS) and 1% Penicillin-Streptomycin Solution. To synchronize the cells (cell cycle synchronization) prior to induction of collagen synthesis, the cells were starved using DMEM-low glucose supplemented with 0.25% FBS for two hours and then without FBS for 24 hours. To induce collagen synthesis, the cells were treated with a collagen induction cocktail for the indicated time. Compounds were added with induction.
Cells in 96-well or 384-well plates were fixed for 20 min in 4% paraformaldehyde (PFA, ENCO, Cat. sc-281692). Following two washes with 1×PBS, cells were treated with hydrogen peroxide (Acros, Cat: 7722-84-1) for 10 minutes and then washed twice with 1×PBS. Cells were then incubated over-night at 4° C. with Anti-Collagen I (Sigma-Aldrich, Cat: C 2456) antibody and washed three times with 1×PBS. Cell were then incubated with a suitable secondary fluorescently-tagged antibody and nuclei stained with DAPI, for 1 hour, and then washed 3 times with 1×PBS.
Cell images were taken with Operetta (Perkin Elmer, USA), a wide-field fluorescence microscope at 20× magnification. After acquisition, the images were transferred to Columbus software (Perkin-Elmer) for image analysis. In Columbus, cells were identified by their nucleus, using the “Find Nuceli” module and cytoplasm was detected based on the secondary antibody channel. Subsequently, the fluorescent signal was enumerated in the identified cell region. Data was exported to a data analysis and visualization software, Tibco Spotfire, USA.

Compound | COL1 Efficacy (LogEC50)
FC(F)(F)c1ccc2[nH]c(CN3CCN(c4ccncc4)CC3)cc2c1 [compound 226, 2-[[4-(4-pyridyl)piperazin-1-yl]methyl]-5-(trifluoromethyl)-1H-indole] | + (+: >−5)
Cn1cc(N2CCN(Cc3nc4ccccc4o3)CC2)nn1 [compound 322] | + (+: >−5)
c1ccc2[nH]c(CN3CCCN(c4ccncc4)CC3)cc2c1 [compound 273, 2-[[4-(4-pyridyl)-1,4-diazepan-1-yl]methyl]-1H-indole] | −
c1cncc(N2CCN(Cc3cc4ccccc4[nH]3)CC2)c1 [Compound 217, 2-[[4-(3-pyridyl)piperazin-1-yl]methyl]-1H-indole] | + (+: >−5)
c1cncc(-c2ccc3[nH]c(CN4CCN(c5ccncc5)CC4)cc3c2)c1 [compound 220, 5-(3-pyridyl)-2-[[4-(4-pyridyl)piperazin-1-yl]methyl]-1H-indole] | −
CCc1cncnc1N1CCN(Cc2cc3ccc(COCCOC)cc3[nH]2)CC1 [compound 291, 2-((4-(5-ethylpyrimidin-4-yl)piperazin-1-yl)methyl)-6-((2-methoxyethoxy)methyl)-1H-indole] | +++ (+++: <−6)
Clc1cccc2[nH]c(CN3CCN(c4ccncc4)CC3)cc12 [compound 243, 4-chloro-2-[[4-(4-pyridyl)piperazin-1-yl]methyl]-1H-indole] | −
c1ccc2[nH]c(CN3CCN(c4ccc5cn[nH]c5c4)CC3)cc2c1 [Compound 286, 6-(4-((1H-indol-2-yl)methyl)piperazin-1-yl)-1H-indazole] | −
Cc1cnccc1N1CCN(Cc2cc3ccccc3[nH]2)CC1 [Compound 222, 2-[[4-(3-methyl-4-pyridyl)piperazin-1-yl]methyl]-1H-indole] | ++ (++: −5 to −6)
c1ccc2[nH]c(CN3CCN(c4ccncc4)CC3)nc2c1 [compound 253, 2-[[4-(4-pyridyl)piperazin-1-yl]methyl]-1H-benzimidazole] | ++ (++: −5 to −6)
Clc1ccc2[nH]c(CN3CCN(c4ccncc4)CC3)cc2c1 [compound 245, 5-chloro-2-[[4-(4-pyridyl)piperazin-1-yl]methyl]-1H-indole formate] | −
Cc1ncnc(N2CCN(Cc3nc4ccc(C(F)F)cc4o3)CC2)c1C [compound 304, 6-(difluoromethyl)-2-((4-(5,6-dimethylpyrimidin-4-yl)piperazin-1-yl)methyl)benzo[d]oxazole] | +++ (+++: <−6)
c1cc(N2CCN(Cc3ccc4[nH]ccc4c3)CC2)ccn1 [compound 264, 5-[[4-(4-pyridyl)piperazin-1-yl]methyl]-1H-indole] | −
Cc1ncnc(N2CCN(Cc3nc4ccc(F)cc4o3)CC2)c1C#N [compound 329, 4-(4-((6-fluorobenzo[d]oxazol-2-yl)methyl)piperazin-1-yl)-6-methylpyrimidine-5-carbonitrile] | ++ (++: −5 to −6)
CCc1cncnc1N1CCN(Cc2nc3ccc(Cl)cc3[nH]2)CC1 [Compound 211, 6-chloro-2-((4-(5-ethylpyrimidin-4-yl)piperazin-1-yl)methyl)-1H-benzo[d]imidazole] | +++ (+++: <−6)
c1cc(CN2CCN(c3ccncc3)CC2)c2cc[nH]c2c1 [compound 263, 4-[[4-(4-pyridyl)piperazin-1-yl]methyl]-1H-indole] | −
Cc1ncnc(N2CCN(Cc3nc4c(F)cccc4o3)CC2)c1C [compound 293, 2-((4-(5,6-dimethylpyrimidin-4-yl)piperazin-1-yl)methyl)-4-fluorobenzo[d]oxazole] | ++ (++: −5 to −6)
CCc1cncnc1N1CCN(Cc2cc3ccc(OCCOC)cc3[nH]2)CC1 [compound 292, 2-((4-(5-ethylpyrimidin-4-yl)piperazin-1-yl)methyl)-6-(2-methoxyethoxy)-1H-indole] | ++ (++: −5 to −6)
Cc1ccc2[nH]c(CN3CCN(c4ccncc4)CC3)cc2c1 [compound 252, 5-methyl-2-[[4-(4-pyridyl)piperazin-1-yl]methyl]-1H-indole] | ++ (++: −5 to −6)
c1ccc2oc(CN3CCN(c4ccncn4)CC3)nc2c1 [compound 281, 2-[(4-pyrimidin-4-ylpiperazin-1-yl)methyl]-1,3-benzoxazole hemiformate] | + (+: >−5)
c1ccc2oc(CN3CCN(c4c[nH]nn4)CC3)nc2c1 [compound 332] | −
Cc1cccnc1N1CCN(Cc2cc3ccccc3[nH]2)CC1 [Compound 238, 2-[[4-(3-methyl-2-pyridyl)piperazin-1-yl]methyl]-1H-indole] | ++ (++: −5 to −6)

Compound | COL1 Efficacy (LogEC50)
CCc1cncnc1N1CCN(Cc2nc3ccc(C(F)(F)F)cc3[nH]2)CC1 [compound 214] | +++ (+++: <−6)
Cc1cc(N2CCN(Cc3cc4ccccc4[nH]3)CC2)ccn1 [Compound 221, 2-[[4-(2-methyl-4-pyridyl)piperazin-1-yl]methyl]-1H-indole] | −
c1ccc2[nH]c(CN3CCN(c4ccncn4)CC3)cc2c1 [Compound 213, 2-((4-(pyrimidin-4-yl)piperazin-1-yl)methyl)-1H-indole] | +++ (+++: <−6)
c1ccc2oc(CN3CCN(c4ccncc4)CC3)nc2c1 [compound 282, 2-[[4-(4-pyridyl)piperazin-1-yl]methyl]-1,3-benzoxazole formate] | + (+: >−5)
Cc1ncnc(N2CCN(Cc3nc4ccc(F)cc4o3)CC2)c1C(N)=O [compound 333] | −
c1ccc2[nH]c(CN3CCN(c4ccnc5ccccc45)CC3)cc2c1 [Compound 236, 4-[4-(1H-indol-2-ylmethyl)piperazin-1-yl]quinolone] | ++ (++: −5 to −6)
Cc1ncnc(N2CCN(Cc3nc4ccccc4[nH]3)CC2)c1C [compound 257, 2-[[4-(5,6-dimethylpyrimidin-4-yl)piperazin-1-yl]methyl]-1H-benzimidazole] | ++ (++: −5 to −6)
Cc1cncnc1N1CCN(Cc2cc3ccccc3[nH]2)CC1 [compound 266, 2-[[4-(5-methylpyrimidin-4-yl)piperazin-1-yl]methyl]-1H-indole formate] | + (+: >−5)
c1ccc2[nH]c(CN3CCC4(CCN(c5ccncc5)C4)C3)cc2c1 (stereo not shown) [compound 272, 7-(1H-indol-2-ylmethyl)-2-(4-pyridyl)-2,7-diazaspiro[4.4]nonane] | −
c1ccc2[nH]c(CN3CCN(c4ccnc5[nH]ccc45)CC3)cc2c1 [compound 242, 4-[4-(1H-indol-2-ylmethyl)piperazin-1-yl]-1H-pyrrolo[2,3-b]pyridine] | + (+: >−5)
Clc1c(CN2CCN(c3ccncc3)CC2)[nH]c2ccccc12 [compound 248, 3-chloro-2-[[4-(4-pyridyl)piperazin-1-yl]methyl]-1H-indole] | +++ (+++: <−6)
Nc1ccc2[nH]c(CN3CCN(c4ccncc4)CC3)cc2c1 [compound 246, 2-[[4-(4-pyridyl)piperazin-1-yl]methyl]-1H-indol-5-amine] | ++ (++: −5 to −6)
c1ccc2[nH]c(CN3CCN(c4ccnnc4)CC3)cc2c1 [compound 279, 2-[(4-pyridazin-4-ylpiperazin-1-yl)methyl]-1H-indole formate] | −
c1ccc2[nH]c(CN3CCN(c4cncnc4)CC3)cc2c1 [compound 278, 2-[(4-pyrimidin-5-ylpiperazin-1-yl)methyl]-1H-indole formate] | −
O=C(Nc1ccc2[nH]c(CN3CCN(c4ccncc4)CC3)cc2c1)c1ccccc1 [compound 249, N-[2-[[4-(4-pyridyl)piperazin-1-yl]methyl]-1H-indol-5-yl]benzamide] | +++ (+++: <−6)
FC(F)(F)c1cncnc1N1CCN(Cc2nc3ccccc3o2)CC1 [compound 315, 2-((4-(5-(trifluoromethyl)pyrimidin-4-yl)piperazin-1-yl)methyl)benzo[d]oxazole] | + (+: >−5)
c1ccc2[nH]c(CN3CCC(c4ccncc4)CC3)cc2c1 [compound 269, 2-[[4-(4-pyridyl)-1-piperidyl]methyl]-1H-indole] | −
Clc1cncnc1N1CCN(Cc2nc3ccccc3o2)CC1 [compound 314, 2-((4-(5-chloropyrimidin-4-yl)piperazin-1-yl)methyl)benzo[d]oxazole] | ++ (++: −5 to −6)
c1ccc2c(CN3CCN(c4ccncc4)CC3)c[nH]c2c1 [compound 277, 3-((4-(pyridin-4-yl)piperazin-1-yl)methyl)-1H-indole bis 2,2,2-trifluoroacetate] | −
COCCOc1ccc2[nH]c(CN3CCN(c4ccncc4)CC3)cc2c1 [compound 260, 5-(2-methoxyethoxy)-2-[[4-(4-pyridyl)piperazin-1-yl]methyl]-1H-indole] | ++ (++: −5 to −6)
c1cnc2cc(CN3CCN(c4ccncc4)CC3)[nH]c2c1 [compound 284, 2-[[4-(4-pyridyl)piperazin-1-yl]methyl]-1H-pyrrolo[3,2-b]pyridine] | −
